One data set relates to myeloperoxidase (MPO). Nature of the data set: MPO activity in liver, kidney, colon, brain. The format is in vivo, mice. The settings on record: 72 h. The protocol:
MPO is an enzyme that is found predominantly in the azurophilic granules of polymorphonuclear leukocytes (PMN). […] MPO activity was measured in tissues in a procedure similar to that documented by […] et al.

The subject of data set [1] is acetic acid-induced abdominal constriction. Nature of the data set: Acetic acid-induced writhing (Koster) test. Type of data set: in vivo, mice. The settings on record: 100 mg/kg oral. In a few lines: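 Test samples in 0.5% CMC/water given orally to mice; vehicle controls. One hour later, 3% acetic acid (0.1 mL/10 g) i.p.; writhes counted for 10 min starting 5 min post-injection. Activity expressed as % change from writhing controls; ASA 200 mg/kg as reference.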
A general note: Writhing tests count abdominal constrictions after an irritant is injected.

The values that follow come from publication PMC6269910 (Molecules, 2013).

In the case of `CCNC(=S)NS(=O)(=O)c1ccc(-n2nc(C(F)(F)F)cc2-c2ccc(C)cc2)cc1` [Compound 1a, N-(Ethylcarbamothioyl)-4-[5-(4-methylphenyl)-3-(trifluoromethyl)-1H-pyrazol-1-yl] benzenesulfonamide], the MPO with myeloperoxidase (MPO) (brain, 100 mg/kg oral) was 0.73 ± 0.32 U/gtissue; with myeloperoxidase (MPO) (brain, 200 mg/kg oral) it was 1.95 ± 0.60 U/gtissue; in the data set on myeloperoxidase (MPO) (colon, 100 mg/kg oral) it was 0.27 ± 0.13 U/gtissue; in the data set on myeloperoxidase (MPO) (colon, 200 mg/kg oral), 0.38 ± 0.14 U/gtissue; with myeloperoxidase (MPO) (kidney, 100 mg/kg oral), 3.18 ± 2.66 U/g tissue; in the data set on myeloperoxidase (MPO) (kidney, 200 mg/kg oral), 4.59 ± 1.01 U/g tissue. Moreover, the MPO in the data set on myeloperoxidase (MPO) (liver, 100 mg/kg oral) is 0.50 ± 0.28 U/gtissue; in the data set with myeloperoxidase (MPO) (liver, 200 mg/kg oral) it was 0.15 ± 0.08 U/gtissue. Further, the “Writhing test (% inh.)” value in data set [1] came to 67.8%. In addition, the “Writhing test (Mean ± SEM)” value in data set [1] (writhings counted 10 min from 5 min after acetic acid) was 5.6 ± 0.9.
